Measurements reported in patent US9290459B1, “Substituted bicyclic dihydropyrimidinones and their use as inhibitors of neutrophil elastase activity” (Boehringer Ingelheim International GmbH, priority 2013, dated 2016).
Converted amounts (≈) assume the structure as drawn. “And” between values parts separate entries of the source, which are not always exact repeats. Equal entries are not always repeated. Where two headings read alike, the source gives them in different places.

Columns and labels:
[1] = target: Human neutrophil elastase (Homo sapiens (Human), UniProt P08246); test: Human Neutrophil Elastase Assay; format: biochemical; conditions: substrate MeOSuc-Ala-Ala-Pro-Val-AMC 250 μM, pH 7.5
[2] = Metabolic stability with human liver microsomes; format: in vitro ADME; conditions: for half-life at 1 μM: pH 7.6
Aqueous solubility = format: physicochemical; conditions: McIlvaine buffer pH 6.8, 2.5% DMSO, 24 h shaking; for solubility at 24 h: McIlvaine buffer pH 6.8 with 2.5% DMSO, pH 6.8, aqueous buffer, kinetic from dmso stock
Experimental: Assay for Determination of Aqueous Solubility […] After 24 h of shaking, the solutions or suspensions are filtered and analyzed by LC-UV. The amount dissolved in buffer is compared to the amount dissolved in the acetonitrile/water (1/1) solution.

Caco-2 cells = test: Drug transport across human Caco-2 cells; format: in vitro ADME; conditions: for PEAB / PEBA: Caco-2 monolayers, pH 7.2, 37° C.; for PEAB: apical-to-basal; for AB permeability (PEAB): Caco-2, pH 7.2, 37° C., compared to prior-art cyclic amide derivative; for PEBA: basal-to-apical; for Efflux ratio: PEBA/PEAB, Caco-2
[3] = Drug transport across human Caco-2 cells; format: in vitro ADME; conditions: human; for Papp B→A at 10 µM / Papp A→B at 10 µM: Caco-2, pH 7.2, Caco-2 monolayers, pH 7.2, 37° C.; for Papp B→A at 10 µM: basal-to-apical, read-out: PEBA; for efflux ratio at 10 μM: Caco-2, pH 7.2, PEBA/PEAB, Caco-2; for Papp A→B at 10 µM: apical-to-basal, read-out: PEAB
[4] = target: neutrophil elastase in human plasma (Homo sapiens (Human), UniProt P08246); test: Neutrophil elastase inhibitory activity in human plasma (zymosan-stimulated blood); format: biochemical
human hepatocytes = test: Metabolic stability with human hepatocytes; format: in vitro ADME; conditions: for CL (predicted human hepatic in vivo blood clearance): human hepatocyte suspension, 1 μM test compound, scaled with well stirred model
Experimental: Assay for the Determination of Metabolic Stability with Human Hepatocytes The metabolic degradation of the test compound is assayed in a human hepatocyte suspension. Human hepatocytes (typically cryopreserved) are incubated in an appropriate buffer system (e.g. […] Samples are transferred into acetonitrile and pelleted by centrifugation (5 min) The supernatant is transferred to a new 96-deepwell plate, evaporated under nitrogen and resuspended. The decline of parent compound is analyzed by LC-MS/MS.

cytochrome P450 2C19 = cytochrome P450 2C19 (Homo sapiens (Human), UniProt P33261); test: Cytochrome P450 2C19 inhibition; format: in vitro ADME; conditions: human liver microsomes; for IC50: (S)-Mephenytoin hydroxylation, read-out: CYP2C19 IC50
cytochrome P450 2C9 = cytochrome P450 2C9 (Homo sapiens (Human), UniProt P11712); test: Cytochrome P450 2C9 inhibition; format: in vitro ADME; conditions: human liver microsomes; for IC50: Diclofenac hydroxylation, read-out: CYP2C9 IC50
cytochrome P450 2C8 = cytochrome P450 2C8 (Homo sapiens (Human), UniProt P10632); test: Cytochrome P450 2C8 inhibition; format: in vitro ADME; conditions: human liver microsomes; for IC50: Amodiaquine deethylation, read-out: CYP2C8 IC50
[5] = compared to example 8A disclosed in WO 2005/0828683
[6] = pooled human liver microsomes, 1 mg/ml protein, 1 μM test compound, 37° C., NADPH
[7] = human neutrophil elastase, read-out: IC50
[8] = neutrophil elastase enriched human plasma from zymosan-stimulated blood, read-out: EC50

Chain of cytochrome P450 2C8 (P10632 whole entry): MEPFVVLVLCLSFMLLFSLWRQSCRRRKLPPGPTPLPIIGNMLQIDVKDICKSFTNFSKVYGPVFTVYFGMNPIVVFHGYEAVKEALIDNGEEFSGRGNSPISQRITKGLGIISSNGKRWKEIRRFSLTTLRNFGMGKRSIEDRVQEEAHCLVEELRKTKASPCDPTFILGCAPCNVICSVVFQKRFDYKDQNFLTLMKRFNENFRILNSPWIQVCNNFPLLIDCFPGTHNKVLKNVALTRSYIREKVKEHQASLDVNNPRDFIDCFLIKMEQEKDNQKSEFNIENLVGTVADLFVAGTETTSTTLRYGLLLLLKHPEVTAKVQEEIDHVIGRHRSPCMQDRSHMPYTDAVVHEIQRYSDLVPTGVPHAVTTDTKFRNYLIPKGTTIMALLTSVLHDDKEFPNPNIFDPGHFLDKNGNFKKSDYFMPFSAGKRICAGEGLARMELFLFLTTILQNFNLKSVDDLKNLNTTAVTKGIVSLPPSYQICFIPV
Chain of Human neutrophil elastase (P08246 30-247): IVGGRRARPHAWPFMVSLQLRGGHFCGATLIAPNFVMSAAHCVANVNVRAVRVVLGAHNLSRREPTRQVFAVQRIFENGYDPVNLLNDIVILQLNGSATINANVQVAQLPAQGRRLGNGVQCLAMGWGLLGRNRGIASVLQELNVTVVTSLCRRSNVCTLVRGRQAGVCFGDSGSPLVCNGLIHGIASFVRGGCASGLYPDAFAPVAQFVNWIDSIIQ
Chain of neutrophil elastase in human plasma (P08246 30-247): as above
Chain of cytochrome P450 2C19 (P33261 whole entry): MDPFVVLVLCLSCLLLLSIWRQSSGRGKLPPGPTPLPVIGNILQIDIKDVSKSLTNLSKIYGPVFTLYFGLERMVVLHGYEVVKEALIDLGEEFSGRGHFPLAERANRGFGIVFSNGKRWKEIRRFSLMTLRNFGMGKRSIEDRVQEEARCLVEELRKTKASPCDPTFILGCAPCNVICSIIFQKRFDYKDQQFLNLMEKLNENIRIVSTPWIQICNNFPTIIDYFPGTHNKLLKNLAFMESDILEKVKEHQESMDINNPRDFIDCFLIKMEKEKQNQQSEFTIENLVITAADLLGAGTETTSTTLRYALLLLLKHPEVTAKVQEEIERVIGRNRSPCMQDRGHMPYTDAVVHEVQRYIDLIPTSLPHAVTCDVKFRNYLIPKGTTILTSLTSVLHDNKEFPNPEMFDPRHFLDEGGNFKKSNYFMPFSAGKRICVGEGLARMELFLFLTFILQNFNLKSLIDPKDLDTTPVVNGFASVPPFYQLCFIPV
Chain of cytochrome P450 2C9 (P11712 whole entry): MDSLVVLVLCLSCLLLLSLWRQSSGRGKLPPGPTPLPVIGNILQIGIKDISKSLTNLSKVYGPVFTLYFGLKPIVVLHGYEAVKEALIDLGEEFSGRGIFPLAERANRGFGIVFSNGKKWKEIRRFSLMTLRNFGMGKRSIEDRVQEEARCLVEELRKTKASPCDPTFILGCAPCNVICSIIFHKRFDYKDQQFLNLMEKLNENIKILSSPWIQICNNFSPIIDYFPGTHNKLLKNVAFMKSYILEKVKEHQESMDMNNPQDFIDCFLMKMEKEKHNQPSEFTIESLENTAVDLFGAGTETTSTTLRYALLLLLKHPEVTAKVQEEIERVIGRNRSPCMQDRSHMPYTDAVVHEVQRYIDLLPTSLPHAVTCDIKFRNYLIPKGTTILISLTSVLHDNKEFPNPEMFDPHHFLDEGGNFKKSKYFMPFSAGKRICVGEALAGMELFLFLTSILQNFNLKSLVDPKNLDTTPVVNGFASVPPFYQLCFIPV

Row | Papp B→A at 10 µM [3] [×10⁻⁶ cm/s] | efflux ratio at 10 μM [3] | SMILES | solubility at 24 h (Aqueous solubility) [µg/mL] | PEAB (Caco-2 cells) [×10⁻⁶ cm/s] | half-life at 1 μM ([2]; human, microsomes) [h] | CL (predicted human hepatic in vivo blood clearance) (human hepatocytes) [mL/min/kg] | Papp A→B at 10 µM [3] [×10⁻⁶ cm/s] | t1/2 INVITRO [2, 6] [h] | Aqueous solubility (Aqueous solubility) | PEBA (Caco-2 cells) | Efflux ratio (Caco-2 cells) | IC50 [1, 7] [nM] | IC50 (cytochrome P450 2C19) [nM] | IC50 (cytochrome P450 2C9) [nM] | EC50 [4, 8] [nM] | IC50 (cytochrome P450 2C8) [nM] | also measured
1 | 71.4 | 5.9 | CN1C(=O)N(c2cccc(C(F)(F)F)c2)C2=C(C(=O)CC2)C1c1ccc(C#N)cc1[S+](C)[O-] (single isomer, unassigned) [Example 30B, 4-(3-Methyl-2,5-dioxo-1-(3-(trifluoromethyl)phenyl)-2,3,4,5,6,7-hexahydro-1H-cyclopenta[d]pyrimidin-4-yl)-3-(methylsulfinyl)benzonitrile] | 65 (≈ 137 µM) | 12 |  |  |  |  |  |  |  |  |  |  |  |  | IC50 ([1]; IC50, human neutrophil elastase): 2 nM; half-life at 1 μM ([2]; pooled human liver microsomes, 1 mg/ml protein, 1 μM test compound, 37° C., NADPH, read-out: t1/2 INVITRO): > 2.17 h; EC50 ([4]; EC50, neutrophil elastase enriched human plasma from zymosan-stimulated blood): 2 nM
2 | 76.4 |  | N#Cc1ccc([C@H]2NC(=O)N(c3cccc(C(F)(F)F)c3)C3=C2C(=O)CC3)cc1 [Example 1A, (R)-4-(2,5-Dioxo-1-(3-(trifluoromethyl)phenyl)-2,3,4,5,6,7-hexahydro-1H-cyclopenta[d]pyrimidin-4-yl)benzonitrile] | 74 (≈ 186 µM) |  | > 2.17 | 6 | 51 |  |  |  |  |  |  |  |  |  | half-life (t1/2 INVITRO), metabolic stability ([2]; human, microsomes): improved half life; predicted human hepatic in vivo blood clearance (CL) (human hepatocytes; human hepatocytes, compared to example 8A disclosed in WO 2005/0828683): reduced clearance; AB permeability (PEAB) (Caco-2 cells): improved AB permeability; CYP2C19 inhibition (cytochrome P450 2C19; compared to example 8A in WO 2005/0828683): reduced CYP2C19 inhibition; CYP2C9 inhibition (cytochrome P450 2C9; [5]): reduced CYP2C9 inhibition; CYP2C8 inhibition (cytochrome P450 2C8; [5]): reduced CYP2C8 inhibition
3 |  |  | N#Cc1ccc(C2C3=C(CCC3=O)N(c3cccc(C(F)(F)F)c3)C(=O)N2C(=O)NCCCO)cc1 (centres unmarked) [Example 7.3] |  | 9.49 |  | 7 |  | >2.17 | 72 µg/mL | 67.1 ×10⁻⁶ cm/s | 7.1 |  |  |  |  |  | 
4 | 73 | 1.7 | CS(=O)(=O)N1C(=O)N(c2cccc(C(F)(F)F)c2)C2=C(C(=O)CC2)[C@H]1c1ccc(C#N)cc1 [Example 9A, (R)-4-(3-(Methylsulfonyl)-2,5-dioxo-1-(3-(trifluoromethyl)phenyl)-2,3,4,5,6,7-hexahydro-1H-cyclopenta[d]pyrimidin-4-yl)benzonitrile] |  |  | > 2.17 | 0 | 43.9 |  |  |  |  | 3 | > 50000 | > 50000 | 2 | > 50000 | 
5 |  |  | C[C@H](O)CNC(=O)N1C(=O)N(c2cccc(C(F)(F)F)c2)C2=C(C(=O)CC2)C1c1ccc(C#N)cc1 (some centres unmarked) [Example 41.1] |  |  |  | 2 |  | >2.17 | 97 µg/mL and 73 µg/mL | 72.9 ×10⁻⁶ cm/s and 90.3 ×10⁻⁶ cm/s | 8.9 and 4.8 |  |  |  |  |  | 
6 |  |  | C[C@H](CO)NC(=O)N1C(=O)N(c2cccc(C(F)(F)F)c2)C2=C(C(=O)CC2)C1c1ccc(C#N)cc1 (some centres unmarked) [Example 41.4] |  | 9.41 |  | 5 |  | >2.17 | 92 µg/mL | 81.5 ×10⁻⁶ cm/s | 8.7 |  |  |  |  |  | 
7 |  |  | CC(C)(O)CCNC(=O)N1C(=O)N(c2cccc(C(F)(F)F)c2)C2=C(C(=O)CC2)C1c1ccc(C#N)cc1 (centres unmarked) [Example 41.17] |  | 23.4 |  | 3 |  | >2.17 | 54 µg/mL | 80.7 ×10⁻⁶ cm/s | 3.5 |  |  |  |  |  | 
8 | 75.1 | 6.8 | CC(C)(O)CNC(=O)N1C(=O)N(c2cccc(C(F)(F)F)c2)C2=C(C(=O)CC2)[C@H]1c1ccc(C#N)cc1 [Example 41A, (R)-4-(4-Cyanophenyl)-N-(2-hydroxy-2-methylpropyl)-2,5-dioxo-1-(3-(trifluoro-methyl)phenyl)-4,5,6,7-tetrahydro-1H-cyclopenta[d]pyrimidine-3(2H)-carboxamide] | 79 (≈ 154 µM) |  | > 2.17 | 0 | 11.1 |  |  |  |  | < 1 | > 50000 | > 50000 | < 1 | > 50000 | 

Row | SMILES | Papp B→A at 10 µM [3] [×10⁻⁶ cm/s] | efflux ratio at 10 μM [3] | solubility at 24 h (Aqueous solubility) [µg/mL] | PEAB (Caco-2 cells) [×10⁻⁶ cm/s] | half-life at 1 μM ([2]; human, microsomes) [h] | CL (predicted human hepatic in vivo blood clearance) (human hepatocytes) [mL/min/kg] | Papp A→B at 10 µM [3] [×10⁻⁶ cm/s] | t1/2 INVITRO [2, 6] [h] | Aqueous solubility (Aqueous solubility) | PEBA (Caco-2 cells) | Efflux ratio (Caco-2 cells) | IC50 [1, 7] [nM] | IC50 (cytochrome P450 2C19) [nM] | IC50 (cytochrome P450 2C9) [nM] | EC50 [4, 8] [nM] | IC50 (cytochrome P450 2C8) [nM] | also measured
9 | CS(=O)(=O)c1cc(C#N)ccc1[C@H]1NC(=O)N(c2cccc(C(F)(F)F)c2)C2=C1C(=O)CC2 [Example 10A, (S)-4-(2,5-Dioxo-1-(3-(trifluoromethyl)phenyl)-2,3,4,5,6,7-hexahydro-1H-cyclopenta[d]pyrimidin-4-yl)-3-(methylsulfonyl)benzonitrile] | 57.4 | 14.5 | 84.5 (≈ 178 µM) |  | > 2.17 | 0 | 4.93 |  |  |  |  | 2.6 | 39000 | > 50000 | 1 | > 50000 | AB permeability (PEAB) (Caco-2 cells): improved AB permeability
10 | CNC(=O)N1C(=O)N(c2cccc(C(F)(F)F)c2)C2=C(C(=O)CC2)[C@H]1c1ccc(C#N)cc1S(C)(=O)=O [Example 47.1] | 65.1 | 8 | 83 (≈ 156 µM) |  | > 2.17 | 0 | 8.13 |  |  |  |  | < 1 | > 50000 | > 50000 | < 1 | > 50000 | 
11 | CCNC(=O)N1C(=O)N(c2cccc(C(F)(F)F)c2)C2=C(C(=O)CC2)[C@H]1c1ccc(C#N)cc1S(C)(=O)=O [Example 47.2] | 84.5 |  | 45 (≈ 82.3 µM) |  | > 2.17 | 1 | 12.8 |  |  |  |  | < 1 | > 50000 | > 50000 | < 1 | > 50000 | 
